Species: Rattus norvegicus
Assay: Open TG-GATES - Regimen: Single
Assay type: toxicity, organism-based, Sprague-Dawley
Parameters: regimen Single, gender Male, age 6 weeks
Conditions: in vivo, po, 0 mg/kg, route gavage, dose level Control; for APTT / Bas / Eos / Fbg / Hb / Ht / Lym / MCH / MCHC / MCV / Mono / Neu / PT / Plat / RBC / Ret / WBC: tissue Blood; for KIDNEY_L / KIDNEY_R / KIDNEY_TOTAL: tissue Kidney; for LIVER: tissue Liver; for A/G / ALP / ALT / AST / BUN / CRE / Ca / Cl / DBIL / GLC / IP / K / LDH / Na / PL / RALB / TBIL / TC / TG / TP / gamma-GTP: tissue Plasma

## Cc1ccc(C)c(OCCCC(C)(C)C(=O)O)c1 [GEMFIBROZIL]
3 h
  TERMINAL_BW: 223.7 g
  APTT: 16.9 s
  Bas: 0%
  Eos: 0.6%
  Fbg: 276.4 mg/dL
  Hb: 14 g/dL
  Ht: 40.2%
  Lym: 81.2%
  MCH: 22.6 pg
  MCHC: 34.9%
  MCV: 64.7 fL
  Mono: 2.8%
  Neu: 14.6%
  PT: 12.3 s
  Plat: 124.4 x10_4/uL
  RBC: 621.6 x10_4/ul
  Ret: 8%
  WBC: 76.9 x10_2/uL
  KIDNEY_L: 1 g
  KIDNEY_R: 0.9 g
  KIDNEY_TOTAL: 1.9 g
  LIVER: 9.8 g
  A/G: 0.9
  ALP: 1456 IU/L
  ALT: 45.2 IU/L
  AST: 71.2 IU/L
  BUN: 12.6 mg/dL
  CRE: 0.2 mg/dL
  Ca: 11.3 mg/dL
  Cl: 105 meq/L
  DBIL: 0.046 mg/dL
  GLC: 180.6 mg/dL
  IP: 10.4 mg/dL
  K: 4.2 meq/L
  LDH: 74 IU/L
  Na: 140.2 meq/L
  PL: 179.2 mg/dL
  RALB: 2.6 g/dL
  TBIL: 0.052 mg/dL
  TC: 86.4 mg/dL
  TG: 155.8 mg/dL
  TP: 5.6 g/dL
  gamma-GTP: 1 IU/L
6 h
  TERMINAL_BW: 221.6 g
  APTT: 16.7 s
  Bas: 0%
  Eos: 0.8%
  Fbg: 299 mg/dL
  Hb: 13.9 g/dL
  Ht: 40.6%
  Lym: 75.4%
  MCH: 21.4 pg
  MCHC: 34.3%
  MCV: 62.5 fL
  Mono: 3.6%
  Neu: 19.2%
  PT: 12.1 s
  Plat: 127 x10_4/uL
  RBC: 649.8 x10_4/ul
  Ret: 7.3%
  WBC: 71.6 x10_2/uL
  KIDNEY_L: 0.9 g
  KIDNEY_R: 0.9 g
  KIDNEY_TOTAL: 1.8 g
  LIVER: 9.1 g
  A/G: 0.9
  ALP: 1398 IU/L
  ALT: 43 IU/L
  AST: 70.6 IU/L
  BUN: 9.6 mg/dL
  CRE: 0.2 mg/dL
  Ca: 11.1 mg/dL
  Cl: 107.4 meq/L
  DBIL: 0.024 mg/dL
  GLC: 183 mg/dL
  IP: 10.9 mg/dL
  K: 4.3 meq/L
  LDH: 60.8 IU/L
  Na: 141.6 meq/L
  PL: 156 mg/dL
  RALB: 2.7 g/dL
  TBIL: 0.046 mg/dL
  TC: 86.2 mg/dL
  TG: 71.2 mg/dL
  TP: 5.6 g/dL
  gamma-GTP: 1.4 IU/L
9 h
  TERMINAL_BW: 223.1 g
  APTT: 15.5 s
  Bas: 0%
  Eos: 1%
  Fbg: 302.2 mg/dL
  Hb: 14 g/dL
  Ht: 41%
  Lym: 80%
  MCH: 21.6 pg
  MCHC: 34.1%
  MCV: 63.4 fL
  Mono: 2.6%
  Neu: 15.8%
  PT: 12.3 s
  Plat: 110.9 x10_4/uL
  RBC: 646.6 x10_4/ul
  Ret: 7.6%
  WBC: 69.8 x10_2/uL
  KIDNEY_L: 0.9 g
  KIDNEY_R: 0.9 g
  KIDNEY_TOTAL: 1.8 g
  LIVER: 8.6 g
  A/G: 0.9
  ALP: 1255.2 IU/L
  ALT: 36.6 IU/L
  AST: 65.4 IU/L
  BUN: 12 mg/dL
  CRE: 0.2 mg/dL
  Ca: 11.1 mg/dL
  Cl: 107 meq/L
  DBIL: 0.02 mg/dL
  GLC: 194.2 mg/dL
  IP: 11.9 mg/dL
  K: 4 meq/L
  LDH: 58 IU/L
  Na: 143.4 meq/L
  PL: 150.2 mg/dL
  RALB: 2.6 g/dL
  TBIL: 0.046 mg/dL
  TC: 82.2 mg/dL
  TG: 60.4 mg/dL
  TP: 5.4 g/dL
  gamma-GTP: 1.2 IU/L
24 h
  TERMINAL_BW: 226.6 g
  APTT: 14.7 s
  Bas: 0%
  Eos: 0.8%
  Fbg: 286 mg/dL
  Hb: 13.5 g/dL
  Ht: 38.9%
  Lym: 78.2%
  MCH: 21.7 pg
  MCHC: 34.7%
  MCV: 62.6 fL
  Mono: 2.6%
  Neu: 17.8%
  PT: 12 s
  Plat: 117.7 x10_4/uL
  RBC: 621.8 x10_4/ul
  Ret: 6.6%
  WBC: 87.1 x10_2/uL
  KIDNEY_L: 1 g
  KIDNEY_R: 0.9 g
  KIDNEY_TOTAL: 1.9 g
  LIVER: 10.2 g
  A/G: 1
  ALP: 1725.4 IU/L
  ALT: 48 IU/L
  AST: 74.6 IU/L
  BUN: 16.2 mg/dL
  CRE: 0.2 mg/dL
  Ca: 11.4 mg/dL
  Cl: 104.8 meq/L
  DBIL: 0.024 mg/dL
  GLC: 187 mg/dL
  IP: 8.7 mg/dL
  K: 4.1 meq/L
  LDH: 79.8 IU/L
  Na: 142 meq/L
  PL: 144.6 mg/dL
  RALB: 2.7 g/dL
  TBIL: 0.034 mg/dL
  TC: 78 mg/dL
  TG: 75 mg/dL
  TP: 5.6 g/dL
  gamma-GTP: 1 IU/L

— ChEMBL document CHEMBL3885861, “Open TG-GATES”
